Test results as given in patent US9687467B2, “Diagnosis and treatment of taxane-resistant cancers” (Children's Medical Center Corporation, priority 2011, dated 2017).

How the values were obtained:
T20.2 xenografts = assay: Retransplantation xenograft, paclitaxel-resistant clone; assay type: in vivo, nude mice
Procedure: FIGS. 6A-6C are a series of graphs showing data that validate the A549 in vivo paclitaxel resistance model. (FIG. 6A) Tumor cell lines established after an initial round of inoculation and treatment with either vehicle (T28.2) or 15 mg/kg paclitaxel (T20.2) were harvested during log-phase growth and reinjected subcutaneously into the flanks of nude mice. When the average tumor volume was ˜120 mm^3, vehicle (open circles or squares) or 15 mg/kg paclitaxel (closed circles or squares) was administered intraperitoneally every other day. Treatment was continued until tumors reached approximately four times their initial volume. Each curve represents the average tumor growth±s.e.m. for 10 mice per group. […] Each bar represents the average tumor growth±s.e.m. for 10 mice per group. NS: not significant, *P<0.05 as determined by Wilcoxon's rank sum test. (FIG. 6C) Tumors were harvested, cultured in vitro and cell viability was assessed using the MTT assay. Values are presented as percentage of cell survival in paclitaxel-treated cells relative to untreated cells. White bars represent LC50s from tumor cell lines established from T28.2 tumors treated with vehicle. Black bars represent LC50s from cell lines established from T20.2 tumors treated with paclitaxel. Shown are the mean±s.e.m. of two independent experiments, each performed in triplicate. *P<0.05 as determined by Wilcoxon's rank sum test. […]

MES-SA cells = assay: MTT cell viability assay, paclitaxel response; assay type: cell-based, human; details: 100 nM paclitaxel for 72 h
Procedure: The paclitaxel-resistant cell lines MES-SA^DX5 and A549^TR were transfected with a scrambled non-targeting miRNA (control) and an miR-135a mimic (mimic), respectively. Cells were subsequently treated with 100 nM paclitaxel and cell viability was assessed using the MTT assay (FIGS. 2A, 2B). The percentage of apoptotic cells was assessed by Annexin V-staining and FACS analysis (FIGS. 2C, 2D). Values are presented as percent cell survival in paclitaxel-treated cells relative to untreated cells. *P<0.05, **P<0.001 as determined by Wilcoxon's rank sum test.
FIGS. 4A-4E are a series of micrographs and line graphs showing that miR-135a-mediated APC suppression contributes to paclitaxel resistance. MES-SA and A549 cells were mock-transfected (mock), transfected with a scrambled siRNA (siControl) or with siRNA directed against APC (siAPC). […] Transfected A549 (FIG. 4B) and MES-SA (FIG. 4C) cells were treated with paclitaxel and viability was assessed using the MTT assay. […] (FIG. 4E) Both A549-shCON and -shAPC cells were treated with paclitaxel and cell viability was measured using the MTT assay. […]
Cell growth inhibition was determined by a 3-(4,5-dimethylthiazol-2-yl)-2,5-diphenyltetrazolium (MTT) bromide assay. […] Absorbance was determined using a 96-well SpectraMax plate reader (Molecular Devices, Sunnyvale, Calif.) at 560 nm and 650 nm (background). […]

CC(=O)O[C@H]1C(=O)[C@@]2(C)[C@H]([C@H](OC(=O)c3ccccc3)[C@]3(O)C[C@H](OC(=O)[C@H](O)[C@@H](NC(=O)c4ccccc4)c4ccccc4)C(C)=C1C3(C)C)[C@]1(OC(C)=O)CO[C@@H]1C[C@@H]2O [paclitaxel]
tumor growth after paclitaxel treatment (T20.2 xenografts; 15 mg/kg paclitaxel i.p.): only a slight delay in tumor growth
reduction of relative tumor burden at the end of the experiment (T20.2 xenografts; 15 mg/kg paclitaxel i.p. vs vehicle): 1.4 fold
cell survival (MES-SA cells): 21.8%
